The nature of data set [1]: Toxicity in Balb/c nude mouse xenografted with human A2780 cells assessed as decrease in body weight at 4.75 mg/kg, po bid for 14 days relative to control. It is filed as organism-based. The settings on record: in vivo, 336 h, time 14 day. Also noted: scale not given: the % may be the effect or the level left. (A xenograft is tissue or cells of one species grown in another, often human tumour cells in immunodeficient mice.)

Data set [2] in a line: Toxicity in Balb/c nude mouse xenografted with human A2780 cells assessed as decrease in body weight at 37.5 mg/kg, po bid for 14 days relative to control. The arrangement: scale not given: the % may be the effect or the level left. It counts as organism-based. The note with it: in vivo, 336 h, time 14 day.
The target of data set [3] is Dual specificity tyrosine-phosphorylation-regulated kinase 1B (Homo sapiens) (UniProt Q9Y463). Description: Residual activity of DYRK1B (unknown origin) at 10 nM using Ulight-MBP as substrate and ATP as co-substrate incubated for 40 mins and measured after 1 hr by TR-FRET assay relative to control. The settings on record: time 100.0 min. (In general: Time-resolved FRET reads energy transfer from a long-lived donor to a nearby acceptor.)

Data set [4] deals with A2780. Description: Antitumor activity against human A2780 cells xenografted in Balb/c mouse assessed as inhibition of tumor growth at 4.75 mg/kg, po bid for 14 days relative to control. It is filed as functional. The settings on record: 336 h, time 14 day, read-out: TGI.
Data set [5] addresses T1, Dual specificity tyrosine-phosphorylation-regulated kinase 2 (Homo sapiens, UniProt Q92630).
T1 sequence (Q92630 whole entry): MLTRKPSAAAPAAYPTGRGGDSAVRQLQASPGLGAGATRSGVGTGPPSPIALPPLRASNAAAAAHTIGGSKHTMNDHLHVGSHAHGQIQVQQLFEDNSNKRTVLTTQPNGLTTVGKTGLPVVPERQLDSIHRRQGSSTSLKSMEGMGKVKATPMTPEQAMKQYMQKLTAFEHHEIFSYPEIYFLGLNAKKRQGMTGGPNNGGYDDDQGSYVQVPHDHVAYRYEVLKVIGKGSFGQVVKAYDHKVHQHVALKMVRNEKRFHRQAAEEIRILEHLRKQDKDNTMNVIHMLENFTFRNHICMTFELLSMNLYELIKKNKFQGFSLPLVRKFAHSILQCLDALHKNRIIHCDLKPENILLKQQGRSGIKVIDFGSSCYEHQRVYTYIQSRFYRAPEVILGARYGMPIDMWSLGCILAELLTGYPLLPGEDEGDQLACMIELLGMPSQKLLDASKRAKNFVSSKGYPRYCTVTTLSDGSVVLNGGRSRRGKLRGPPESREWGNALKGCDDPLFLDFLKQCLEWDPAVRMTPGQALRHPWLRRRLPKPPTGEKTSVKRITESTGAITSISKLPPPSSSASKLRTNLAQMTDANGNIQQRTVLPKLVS
The data set can be described thus: Inhibition of DYRK2 (unknown origin) using Ulight-MBP as substrate and ATP as co-substrate incubated for 40 mins and measured after 1 hr by TR-FRET assay.

In data set [6] the test system is RS4-11. Description: Antitumor activity against human RS4-11 cells xenografted in BALB/c nu/nu mouse assessed as reduction in DYRK1A autophosphorylation of S520 residue at 25 mg/kg, po measured after 2 hrs by western blotting analysis relative to control. It is filed as functional. Also noted: scale not given: the % may be the effect or the level left.
The target in data set [7] is Dual specificity tyrosine-phosphorylation-regulated kinase 1A (Homo sapiens, UniProt Q13627). The data set can be described thus: Residual activity of DYRK1A (unknown origin) at 10 nM using Ulight-MBP as substrate and ATP as co-substrate incubated for 40 mins and measured after 1 hr by TR-FRET assay relative to control. The note with it: time 100.0 min.
The nature of data set [8]: Toxicity in Balb/c nude mouse xenografted with human A2780 cells assessed as decrease in body weight at 9.5 mg/kg, po bid for 14 days relative to control. It is filed as organism-based. Also noted: scale not given: the % may be the effect or the level left. The note with it: in vivo, 336 h, time 14 day.
For data set [9], the system named is C-33-A. Description: cells. The settings on record: Homo sapiens.
Data set [10] deals with C-33-A. Description: cells. The note with it: Homo sapiens, 120 h.
Data set [11] relates to A2780. Description: Antitumour activity against human A2780 cells xenografted in BALB/c nu/nu mouse assessed as reduction in DYRK1A autophosphorylation of S520 residue at 9.375 mg/kg, po measured after 6 hrs by western blotting analysis relative to control. The arrangement: scale not given: the % may be the effect or the level left. It counts as functional.
Data set [12] concerns the target Homeodomain-interacting protein kinase 1 (Homo sapiens) (UniProt Q86Z02). The data set can be described thus: Residual activity of HIPK1 (unknown origin) at 10 nM using Ulight-MBP as substrate and ATP as co-substrate incubated for 40 mins and measured after 1 hr by TR-FRET assay relative to control. The settings on record: time 100.0 min.
For data set [13], the target named is Dual specificity protein kinase CLK1 (Homo sapiens) (UniProt P49759). Description: Residual activity of CLK1 (unknown origin) at 10 nM using Ulight-MBP as substrate and ATP as co-substrate incubated for 40 mins and measured after 1 hr by TR-FRET assay relative to control. The settings on record: time 100.0 min.
Data set [14] relates to A2780. Description: Antitumor activity against human A2780 cells xenografted in BALB/c nu/nu mouse assessed as reduction in DYRK1A autophosphorylation of S520 residue at 18.75 mg/kg, po measured after 2 hrs by western blotting analysis relative to control. It is filed as functional. The arrangement: scale not given: the % may be the effect or the level left.
Data set [15] concerns A2780. The data set can be described thus: Antitumour activity against human A2780 cells xenografted in Balb/c mouse assessed as tumour volume T/C at 37.5 mg/kg, po bid for 14 days relative to control. The settings on record: time 14 day.
For data set [16], the system named is A2780. Description: Antitumor activity against human A2780 cells xenografted in Balb/c mouse assessed as inhibition of tumor growth at 18.75 mg/kg, po bid for 14 days relative to control. The settings on record: 336 h, time 14 day, read-out: TGI. It counts as functional.
The target of data set [17] is Ribosomal protein S6 kinase alpha-4 (Homo sapiens) (UniProt O75676). The data set can be described thus: Residual activity of RPS6KA4 (unknown origin) at 10 nM using Ulight-MBP as substrate and ATP as co-substrate incubated for 40 mins and measured after 1 hr by TR-FRET assay relative to control. The note with it: time 100.0 min.
For data set [18], the system named is RS4-11. The data set can be described thus: Antitumor activity against human RS4-11 cells xenografted in BALB/c nu/nu mouse assessed as reduction in DYRK1A autophosphorylation of S520 residue at 3.125 mg/kg, po measured after 2 hrs by western blotting analysis relative to control. The arrangement: scale not given: the % may be the effect or the level left. It is filed as functional.

Data set [19] addresses Casein kinase I isoform gamma-1 (Homo sapiens) (UniProt Q9HCP0). Description: Residual activity of CSNK1G1 (unknown origin) at 10 nM using Ulight-MBP as substrate and ATP as co-substrate incubated for 40 mins and measured after 1 hr by TR-FRET assay relative to control. The settings on record: time 100.0 min.
Data set [20] deals with RS4-11. The data set can be described thus: Antitumor activity against human RS4-11 cells xenografted in BALB/c nu/nu mouse assessed as reduction in DYRK1A autophosphorylation of S520 residue at 3.125 mg/kg, po measured after 6 hrs by western blotting analysis relative to control. Also noted: scale not given: the % may be the effect or the level left. It counts as functional.

The subject of data set [21] is A2780. Description: Antitumor activity against human A2780 cells xenografted in Balb/c mouse assessed as tumor volume T/C at 75 mg/kg, po bid for 14 days relative to control. The note with it: time 14 day.
Data set [22] concerns A2780. The data set can be described thus: Antitumor activity against human A2780 cells xenografted in BALB/c […] mouse assessed as reduction in DYRK1A autophosphorylation of S520 residue at 75 mg/kg, po measured after 2 hrs by western blotting analysis relative to control. It is filed as functional. The arrangement: scale not given: the % may be the effect or the level left.

Sequence of Casein kinase I isoform gamma-1 (Homo sapiens) (Q9HCP0 whole entry, looked up, canonical isoform): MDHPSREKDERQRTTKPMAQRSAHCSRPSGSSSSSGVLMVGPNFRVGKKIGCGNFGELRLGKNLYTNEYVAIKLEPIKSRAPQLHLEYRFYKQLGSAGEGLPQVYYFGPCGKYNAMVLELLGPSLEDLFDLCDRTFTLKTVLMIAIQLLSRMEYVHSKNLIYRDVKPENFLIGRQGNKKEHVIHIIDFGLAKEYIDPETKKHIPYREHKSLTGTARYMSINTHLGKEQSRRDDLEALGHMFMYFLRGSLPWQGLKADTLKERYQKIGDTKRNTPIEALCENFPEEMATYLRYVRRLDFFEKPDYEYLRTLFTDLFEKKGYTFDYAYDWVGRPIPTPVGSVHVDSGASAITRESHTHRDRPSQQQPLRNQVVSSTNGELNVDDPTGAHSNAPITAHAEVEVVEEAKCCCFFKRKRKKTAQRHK
Sequence of Dual specificity tyrosine-phosphorylation-regulated kinase 1B (Homo sapiens) (Q9Y463 whole entry, looked up): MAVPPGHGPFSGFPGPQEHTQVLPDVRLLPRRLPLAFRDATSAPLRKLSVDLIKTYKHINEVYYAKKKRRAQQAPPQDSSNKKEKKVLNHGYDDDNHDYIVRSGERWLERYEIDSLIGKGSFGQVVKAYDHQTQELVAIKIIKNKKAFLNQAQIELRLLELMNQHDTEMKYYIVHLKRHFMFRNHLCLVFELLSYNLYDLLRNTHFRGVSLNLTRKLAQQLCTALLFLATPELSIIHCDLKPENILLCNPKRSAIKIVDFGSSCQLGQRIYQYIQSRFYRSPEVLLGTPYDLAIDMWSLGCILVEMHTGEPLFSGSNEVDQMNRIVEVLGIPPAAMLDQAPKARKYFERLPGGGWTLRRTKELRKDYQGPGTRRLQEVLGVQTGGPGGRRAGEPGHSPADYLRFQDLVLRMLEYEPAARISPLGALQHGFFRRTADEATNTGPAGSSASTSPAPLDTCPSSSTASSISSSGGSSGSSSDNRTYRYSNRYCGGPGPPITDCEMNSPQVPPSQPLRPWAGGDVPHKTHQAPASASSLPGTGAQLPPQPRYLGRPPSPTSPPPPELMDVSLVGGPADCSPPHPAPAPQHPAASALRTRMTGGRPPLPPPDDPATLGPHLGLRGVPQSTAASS
Sequence of Dual specificity protein kinase CLK1 (Homo sapiens) (P49759 whole entry, looked up): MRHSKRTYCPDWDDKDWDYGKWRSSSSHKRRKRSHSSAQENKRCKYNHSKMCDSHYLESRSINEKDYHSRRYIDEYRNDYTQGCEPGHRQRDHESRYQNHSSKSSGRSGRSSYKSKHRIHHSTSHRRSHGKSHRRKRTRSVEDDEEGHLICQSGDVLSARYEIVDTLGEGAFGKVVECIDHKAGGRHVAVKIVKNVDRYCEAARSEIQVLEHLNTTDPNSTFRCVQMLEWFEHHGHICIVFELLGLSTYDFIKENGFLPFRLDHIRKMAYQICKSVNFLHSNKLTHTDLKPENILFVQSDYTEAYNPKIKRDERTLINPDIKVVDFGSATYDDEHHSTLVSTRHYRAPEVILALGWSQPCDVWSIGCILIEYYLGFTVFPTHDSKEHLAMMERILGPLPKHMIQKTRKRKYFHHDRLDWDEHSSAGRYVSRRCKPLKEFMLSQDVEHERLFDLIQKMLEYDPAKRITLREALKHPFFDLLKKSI
Sequence of Homeodomain-interacting protein kinase 1 (Homo sapiens) (Q86Z02 whole entry, looked up): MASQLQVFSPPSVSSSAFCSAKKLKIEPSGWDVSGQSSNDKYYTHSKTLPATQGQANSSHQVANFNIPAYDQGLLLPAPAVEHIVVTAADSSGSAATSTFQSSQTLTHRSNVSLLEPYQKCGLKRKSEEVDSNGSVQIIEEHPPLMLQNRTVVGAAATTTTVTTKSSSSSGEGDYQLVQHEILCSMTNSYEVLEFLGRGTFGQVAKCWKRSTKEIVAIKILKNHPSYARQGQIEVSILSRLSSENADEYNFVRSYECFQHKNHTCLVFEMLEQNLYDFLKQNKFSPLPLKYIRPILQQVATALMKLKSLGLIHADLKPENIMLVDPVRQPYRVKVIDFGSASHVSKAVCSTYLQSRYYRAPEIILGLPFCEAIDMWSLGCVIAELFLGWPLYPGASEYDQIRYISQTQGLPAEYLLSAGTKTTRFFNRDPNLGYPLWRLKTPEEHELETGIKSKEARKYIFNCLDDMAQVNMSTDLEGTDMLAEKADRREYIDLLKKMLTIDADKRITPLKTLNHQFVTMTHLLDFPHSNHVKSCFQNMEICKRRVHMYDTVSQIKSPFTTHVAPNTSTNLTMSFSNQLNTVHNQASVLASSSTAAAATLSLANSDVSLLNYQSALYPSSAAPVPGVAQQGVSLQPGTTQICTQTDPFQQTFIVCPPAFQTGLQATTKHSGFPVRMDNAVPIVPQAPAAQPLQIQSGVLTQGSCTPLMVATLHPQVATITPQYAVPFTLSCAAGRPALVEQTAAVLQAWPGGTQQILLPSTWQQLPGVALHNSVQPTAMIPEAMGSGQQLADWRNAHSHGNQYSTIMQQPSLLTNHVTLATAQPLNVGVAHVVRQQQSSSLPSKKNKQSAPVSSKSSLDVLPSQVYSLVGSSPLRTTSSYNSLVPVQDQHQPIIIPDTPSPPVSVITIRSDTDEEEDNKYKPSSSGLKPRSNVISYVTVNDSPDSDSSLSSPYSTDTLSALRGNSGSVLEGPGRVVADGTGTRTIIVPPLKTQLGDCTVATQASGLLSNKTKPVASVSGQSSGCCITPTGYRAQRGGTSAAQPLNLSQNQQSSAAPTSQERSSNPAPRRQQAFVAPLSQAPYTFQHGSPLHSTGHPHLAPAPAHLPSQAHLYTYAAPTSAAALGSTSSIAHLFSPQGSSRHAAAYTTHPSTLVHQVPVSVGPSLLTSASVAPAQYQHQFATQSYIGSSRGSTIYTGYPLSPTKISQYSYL
Sequence of Ribosomal protein S6 kinase alpha-4 (Homo sapiens) (O75676 whole entry, looked up): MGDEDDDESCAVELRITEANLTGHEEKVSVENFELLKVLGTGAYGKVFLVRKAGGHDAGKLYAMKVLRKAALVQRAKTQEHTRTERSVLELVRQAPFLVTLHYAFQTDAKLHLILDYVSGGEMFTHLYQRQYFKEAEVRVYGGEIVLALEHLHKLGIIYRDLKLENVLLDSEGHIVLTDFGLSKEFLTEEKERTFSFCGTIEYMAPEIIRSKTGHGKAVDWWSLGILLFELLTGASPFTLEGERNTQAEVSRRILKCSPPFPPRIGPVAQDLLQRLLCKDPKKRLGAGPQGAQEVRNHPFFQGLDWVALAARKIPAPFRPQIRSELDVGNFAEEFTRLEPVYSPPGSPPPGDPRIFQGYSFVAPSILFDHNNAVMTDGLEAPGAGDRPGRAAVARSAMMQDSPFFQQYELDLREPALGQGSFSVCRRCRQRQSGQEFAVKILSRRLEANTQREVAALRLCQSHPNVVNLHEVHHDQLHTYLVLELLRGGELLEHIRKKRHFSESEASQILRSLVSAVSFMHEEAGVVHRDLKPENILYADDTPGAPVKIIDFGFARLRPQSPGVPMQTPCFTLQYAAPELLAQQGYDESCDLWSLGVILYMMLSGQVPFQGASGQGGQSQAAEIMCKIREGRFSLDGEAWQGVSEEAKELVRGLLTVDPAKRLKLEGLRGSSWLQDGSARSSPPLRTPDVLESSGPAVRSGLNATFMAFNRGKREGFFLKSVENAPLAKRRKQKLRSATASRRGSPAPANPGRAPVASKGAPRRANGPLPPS

Consider `Cc1nc2ccc(-c3cc(N)nc(N)c3)nc2n1C1CC1`, for which the Activity in data set [1] worked out at 1.5%; in data set [2], 9.7%; in the data set on RS4-11 [6], 87%; in data set [8], 8.7%; with A2780 [11], 10%; with A2780 [14] it was 82%. Further, the Activity is 51% in the data set with RS4-11 [18], 38% in the data set with RS4-11 [20] and 80% in the data set on A2780 [22]. For the same compound, the residual activity – broadly, the share of the control activity or signal that is left under treatment – in data set [3] is 20%; in data set [7], 9.2%; in data set [12] it was 72%; in data set [13] it was 48%; in data set [17] it was 61%; in [19] it was 69%. The inhibition in vivo at 4.75 mg/kg in the data set on A2780 [4] came to 28%. Further, the figures for the IC50 (in data set [5]; in the data set with C-33-A [9]; in the data set with C-33-A [10]) were 3 nM, 157 nM and 1020 nM, respectively. Besides, the figures for the T/C with A2780 [15] and in the data set on A2780 [21] were 52% and 24%, respectively. In addition, the inhibition in vivo at 18.75 mg/kg in the data set with A2780 [16] is 55%.

The values above are taken from ChEMBL document CHEMBL5042474, “Structure-Guided Discovery of Potent and Selective DYRK1A Inhibitors” (J Med Chem, 2021).
